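96-well plates; 48 h exposure; 5 concentrations. Endpoints by linear interpolation between flanking doses. Not reached: highest tested concentration assigned. The concentration for 50% growth inhibition is given as GI50.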 The source made the active and inactive calls. Rule as the data show it: active = GI50 up to about 1.1 µM and inactive = higher.
Assays:
Assay in all cases: NCI-60 cell line screen, 48 h
786-0 = tested on: 786-0
ACHN = tested on: ACHN
CCRF-CEM = tested on: CCRF-CEM
DU-145 = tested on: DU-145
HCT-116 = tested on: HCT-116
HT-29 = tested on: HT-29
K562 = tested on: K562
KM12 = tested on: KM12
MCF7 = tested on: MCF7
OVCAR-3 = tested on: OVCAR-3
SN12C = tested on: SN12C
SNB-19 = tested on: SNB-19
SW-620 = tested on: SW-620
U-251 = tested on: U-251
UACC-62 = tested on: UACC-62
UO-31 = tested on: UO-31
LOX IMVI = tested on: LOX IMVI
RXF 393 = tested on: RXF 393
TK-10 = tested on: TK-10

Measured: GI50

Cc1cccc(N/C(Sc2ccccc2)=C(/C(Cl)=C(Cl)Cl)[N+](=O)[O-])c1
inactive: 786-0 16.9 µM | ACHN 26.4 µM | CCRF-CEM 27 µM | DU-145 20.5 µM | HCT-116 15.3 µM | HT-29 17.6 µM | K562 20.3 µM | KM12 23.1 µM | MCF7 29.3 µM | OVCAR-3 10 µM | SN12C 15.3 µM | SNB-19 28.7 µM | SW-620 17.4 µM | U-251 15.4 µM | UACC-62 20.3 µM | UO-31 14.7 µM

FC1CCN(C2(c3cccs3)CCCCC2)CC1
inactive: 786-0 > 100 µM | ACHN > 100 µM | DU-145 > 100 µM | HCT-116 > 100 µM | HT-29 47.8 µM | K562 > 100 µM | KM12 > 100 µM | LOX IMVI 96.6 µM | MCF7 > 100 µM | OVCAR-3 > 100 µM | RXF 393 > 100 µM | SN12C > 100 µM | SNB-19 > 100 µM | SW-620 > 100 µM | TK-10 > 100 µM | U-251 > 100 µM | UACC-62 > 100 µM | UO-31 > 100 µM

Clc1ccc(C2=CCN3CC=C(c4ccc(Cl)cc4)C23)cc1
inactive: 786-0 11.6 µM | ACHN 13.7 µM | CCRF-CEM 12.8 µM | DU-145 14.7 µM | HCT-116 5.98 µM | HT-29 5.21 µM | K562 3.17 µM | KM12 6.64 µM | LOX IMVI 8.34 µM | MCF7 13.9 µM | OVCAR-3 12.6 µM | SN12C 8.71 µM | SNB-19 14.5 µM | SW-620 13.3 µM | TK-10 14 µM | U-251 11 µM | UACC-62 7.24 µM | UO-31 6.81 µM

COC(=O)[C@@]1(Cc2ccc(OC(C)=O)cc2)Cc2cc3ccccc3n2N1
inactive: 786-0 33.7 µM | ACHN 58.1 µM | CCRF-CEM 26.5 µM | DU-145 62.4 µM | HCT-116 35 µM | HT-29 36 µM | KM12 60.7 µM | LOX IMVI 38.6 µM | MCF7 29.9 µM | OVCAR-3 69.5 µM | SN12C 29.6 µM | SNB-19 93.8 µM | SW-620 29.2 µM | TK-10 33.7 µM | U-251 30.1 µM | UACC-62 57.4 µM | UO-31 50.7 µM

CCCC(=O)Oc1ccc2c(C)cc(=O)oc2c1OC(=O)CCC
inactive: 786-0 73.3 µM | ACHN 49.5 µM | CCRF-CEM 13.9 µM | DU-145 50.4 µM | HCT-116 39.6 µM | HT-29 35.5 µM | K562 60 µM | KM12 75.3 µM | LOX IMVI 40.8 µM | MCF7 55.5 µM | OVCAR-3 32.4 µM | SN12C 76.6 µM | SNB-19 > 100 µM | SW-620 40.1 µM | TK-10 50.4 µM | U-251 57.3 µM | UACC-62 60.3 µM | UO-31 60.1 µM

Cc1cc(NS(=O)(=O)c2ccc(Nc3c4ccccc4nc4c(C(=O)NCCO)cccc34)cc2)no1
inactive: 786-0 30.8 µM | ACHN 30.2 µM | CCRF-CEM 15.2 µM | DU-145 34.7 µM | HT-29 29 µM | K562 26.3 µM | KM12 23.9 µM | LOX IMVI 27.6 µM | MCF7 14.9 µM | OVCAR-3 21.9 µM | SN12C 32.7 µM | SNB-19 37.4 µM | SW-620 22.6 µM | TK-10 35.6 µM | U-251 27.7 µM | UACC-62 20.2 µM | UO-31 25.2 µM

O=C1/C(=N/N=C(c2ccccc2)c2ccccc2)c2ccccc2-c2ccccc21
inactive: 786-0 > 100 µM | ACHN 65.9 µM | DU-145 > 100 µM | HCT-116 52.1 µM | HT-29 > 100 µM | K562 > 100 µM | KM12 > 100 µM | LOX IMVI 56.4 µM | MCF7 > 100 µM | OVCAR-3 40.8 µM | RXF 393 > 100 µM | SN12C 71.1 µM | SNB-19 > 100 µM | SW-620 > 100 µM | TK-10 75.5 µM | U-251 85.7 µM | UACC-62 55.2 µM | UO-31 45.5 µM

CCCCCCCCCCCCCCCCCc1nc(C#N)c(N)o1
inactive: 786-0 23.3 µM | ACHN 96.6 µM | CCRF-CEM 2.28 µM | DU-145 > 100 µM | HCT-116 > 100 µM | HT-29 > 100 µM | K562 22.7 µM | KM12 23.5 µM | LOX IMVI 54.3 µM | MCF7 > 100 µM | SN12C 61 µM | SNB-19 73.8 µM | SW-620 > 100 µM | TK-10 > 100 µM | U-251 44.2 µM | UACC-62 > 100 µM

O=C(O)C(Br)C(Br)C(=O)O (stereo not drawn)
inactive: 786-0 > 100 µM | ACHN > 100 µM | DU-145 > 100 µM | HCT-116 > 100 µM | HT-29 > 100 µM | K562 > 100 µM | KM12 > 100 µM | LOX IMVI > 100 µM | MCF7 > 100 µM | OVCAR-3 > 100 µM | RXF 393 > 100 µM | SN12C > 100 µM | SNB-19 > 100 µM | SW-620 > 100 µM | TK-10 > 100 µM | U-251 > 100 µM | UACC-62 > 100 µM | UO-31 > 100 µM

c1ccc(-c2ccc(-c3cc4ccccc4[nH]3)cc2)cc1
inactive: 786-0 > 100 µM | ACHN > 100 µM | CCRF-CEM 87.7 µM | DU-145 > 100 µM | HCT-116 > 100 µM | HT-29 > 100 µM | KM12 > 100 µM | LOX IMVI > 100 µM | MCF7 > 100 µM | OVCAR-3 > 100 µM | SN12C > 100 µM | SNB-19 > 100 µM | SW-620 > 100 µM | TK-10 > 100 µM | U-251 > 100 µM | UACC-62 > 100 µM | UO-31 > 100 µM

CONC(C)=O
inactive: 786-0 > 100 µM | ACHN > 100 µM | CCRF-CEM > 100 µM | DU-145 > 100 µM | HCT-116 > 100 µM | HT-29 > 100 µM | K562 > 100 µM | KM12 > 100 µM | LOX IMVI > 100 µM | MCF7 > 100 µM | OVCAR-3 > 100 µM | SN12C > 100 µM | SNB-19 > 100 µM | SW-620 > 100 µM | TK-10 > 100 µM | U-251 > 100 µM | UACC-62 > 100 µM | UO-31 > 100 µM

O=C(O)CCCc1ccc2ccc3ccccc3c2c1
inactive: 786-0 > 100 µM | ACHN 46.2 µM | DU-145 > 100 µM | HCT-116 89.1 µM | HT-29 83.9 µM | K562 42.5 µM | KM12 35.6 µM | LOX IMVI 96.4 µM | MCF7 > 100 µM | OVCAR-3 53.6 µM | RXF 393 15.3 µM | SN12C > 100 µM | SNB-19 > 100 µM | TK-10 57.4 µM | U-251 71.1 µM | UACC-62 38.3 µM | UO-31 88.1 µM

— ChEMBL document CHEMBL1201862, “PubChem BioAssay data set” (2004)
